According to patent US20210299193A1, “SYNBIOTIC COMPOSITION FOR IMPROVING IMMUNE RESPONSE AND ANTIOXIDANT CAPACITY DURING AGING AND A PROCESS FOR THE PREPARATION THEREOF” (COUNCIL OF SCIENTIFIC & INDUSTRIAL RESEARCH, priority 2018, published 2021):

Experiments:
[1] = tested on: probiotic bacteria (Lactobacillus species); assay: Effect of EGCG on growth of probiotic bacteria (OD 600 nm); assay type: cell-based; conditions: 0.1% EGCG in media, vs control without EGCG
Text: (§1) FIG. 1. Effect of EGCG on growth of probiotic and pathogenic bacterial species. The growth was monitored by inoculating a 5% inoculum of respective bacterial species into media containing 0.1% of EGCG. Growth was compared to that of control (without EGCG) to determine the influence of EGCG by spectrophotometric method (600 nm). Lactobacillus rhamnosus (LR); Lactobacillus fermentum (LF); Lactobacillus planatarum (LP); Escherichia coli (EC; MTCC 43); Salmonella typhi (ST; MTCC 733); Pseudomonas aeruginosa (PS; MTCC 424); Staphylococcus aureus (SA; MTCC 96); Klebsiella pneumoniae (K; MTCC 109); Shigella flexneri (SF; MTCC 1457); Vibrio cholera (VC; MTCC 3904).
(§2) To test prebiotic efficacy, the effect of EGCG on growth of probiotic bacteria (Lactobacillus species) and pathogenic bacteria [Escherichia coli (EC); Salmonella typhi (ST); Pseudomonas (PS); Staphylococcus aureus (SA); Klebsiella (K); Shigella flexneri (SF); Vibrio cholera (VC)] was assessed. The probiotic bacteria were isolated, identified and characterized while the pathogenic bacteria were procured from MTCC, Chandigarh.

pathogenic bacteria = assay: Effect of EGCG on growth of pathogenic bacteria (OD 600 nm); assay type: cell-based; conditions: 0.1% EGCG in media, vs control without EGCG
Text: as §1, §2

splenocytes = assay: Flow cytometric analysis of splenocyte T cell sub-populations and activation status in aging animals; assay type: in vivo, swiss albino mice; conditions: 16 months old mice, oral supplementation 30 days
Experimental: The probiotic Lactobacillus, EGCG or a combination of the two were orally administered to aged animals for 31 days before sacrificing and subsequent analysis of various immune and oxidative stress associated parameters.
Effect of synbiotics supplementation on T cells sub-population of aging animals. Animals were fed with respective diets for 31 days following which splenocytes were analyzed by flow cytometry. (A) %CD3+ cells (B) %NK cells and (C) %NKT cells. Bars with different letter indicate significant difference at p<0.05.
Effect of synbiotics supplementation on activation status of T cells sub-population of aging animals. Animals were fed with respective diets for 31 days following which splenocytes were analyzed by flow cytometry. (A) Activated T cells (B) Activated NK cells and (C) Activated NKT cells. Bars with different letter indicate significant difference at p<0.05.
The synbiotic composition of EGCG and probiotic Lactobacillus sp was assessed for effects on cellular immune response using aging murine model. Animals (16 months old) were randomized into four groups of six mice each: 1 control group and 3 experimental groups comprising of either only EGCG (PRE), probiotic Lactobacillus sp (PRO) or a combination of both (SYN). All animals were fed on commercially available pelleted mice chow (Golden feeds, New Delhi, India) and water ad libitum. The experimental animal groups were each supplemented with EGCG (@100 mg/kg/animal/day), probiotic Lactobacilli sp (10^8 cfu/ml) or a combination of both above (synbiotic) respectively for 30 consecutive days. At the end of the feeding regimen, the animals were sacrificed for various immunological and antioxidative analysis.

**Q.** Which “average decrease in growth of probiotics” value ([1]; 5% inoculum, average over probiotic species) does the source give for `O=C(O[C@@H]1Cc2c(O)cc(O)cc2O[C@@H]1c1cc(O)c(O)c(O)c1)c1cc(O)c(O)c(O)c1` [EGCG, Epigallocatechin gallate] here?
**A.** 14.05%

**Q.** And the “decrease in growth of probiotics, Max” value ([1]; maximum among probiotic species)?
**A.** 31%

**Q.** And the “decrease in growth of probiotics, Min” value ([1]; minimum among probiotic species)?
**A.** 1.4%

**Q.** What about the “average growth inhibition of pathogens” value (pathogenic bacteria; 5% inoculum, average over all pathogens) of the same compound?
**A.** 52.05%

**Q.** What about the “growth inhibition of pathogens, Max” value (pathogenic bacteria; maximum among pathogens) of the same compound?
**A.** 89.88%

**Q.** What about the “growth inhibition of pathogens, Min” value (pathogenic bacteria; minimum among pathogens) of the same compound?
**A.** 32.7%

**Q.** And the “natural killer T cells (NKT) subpopulation” value (splenocytes)?
**A.** no significant difference

**Q.** What about the “activation of NK cells” value (splenocytes; vs control group) of the same compound?
**A.** decrease

**Q.** And the “activation status of NKT cells” value (splenocytes; vs control group)?
**A.** no changes

**Q.** And the “numbers of natural killer cells (NK)” value (splenocytes; vs control group)?
**A.** appeared to decrease
